pIC50: −log10 of the molar value.
What was measured:
human androgen receptor [1] = target: T1, human androgen receptor (Homo sapiens, UniProt P10275); experiment: Androgen receptor reporter gene assay, agonist action (MMTV-Luc, pSG5-hAR and Renilla Luc vectors transfected into HeLa cells, dual-luciferase); format: cell-based; conditions: for FI5 value: concentration showing a transcriptional activity five times that without compound, tested at 1, 10, 100, 1000 and 10000 nmol/L; for acting as agonist: at a concentration of 10 µmol/L; for agonist action for the androgen receptor mediated transcriptional activity: summary of the results of Example 180
T1 construct: expressed in transfected cells; host or cells: HeLa cells
T1 sequence (P10275 1-920): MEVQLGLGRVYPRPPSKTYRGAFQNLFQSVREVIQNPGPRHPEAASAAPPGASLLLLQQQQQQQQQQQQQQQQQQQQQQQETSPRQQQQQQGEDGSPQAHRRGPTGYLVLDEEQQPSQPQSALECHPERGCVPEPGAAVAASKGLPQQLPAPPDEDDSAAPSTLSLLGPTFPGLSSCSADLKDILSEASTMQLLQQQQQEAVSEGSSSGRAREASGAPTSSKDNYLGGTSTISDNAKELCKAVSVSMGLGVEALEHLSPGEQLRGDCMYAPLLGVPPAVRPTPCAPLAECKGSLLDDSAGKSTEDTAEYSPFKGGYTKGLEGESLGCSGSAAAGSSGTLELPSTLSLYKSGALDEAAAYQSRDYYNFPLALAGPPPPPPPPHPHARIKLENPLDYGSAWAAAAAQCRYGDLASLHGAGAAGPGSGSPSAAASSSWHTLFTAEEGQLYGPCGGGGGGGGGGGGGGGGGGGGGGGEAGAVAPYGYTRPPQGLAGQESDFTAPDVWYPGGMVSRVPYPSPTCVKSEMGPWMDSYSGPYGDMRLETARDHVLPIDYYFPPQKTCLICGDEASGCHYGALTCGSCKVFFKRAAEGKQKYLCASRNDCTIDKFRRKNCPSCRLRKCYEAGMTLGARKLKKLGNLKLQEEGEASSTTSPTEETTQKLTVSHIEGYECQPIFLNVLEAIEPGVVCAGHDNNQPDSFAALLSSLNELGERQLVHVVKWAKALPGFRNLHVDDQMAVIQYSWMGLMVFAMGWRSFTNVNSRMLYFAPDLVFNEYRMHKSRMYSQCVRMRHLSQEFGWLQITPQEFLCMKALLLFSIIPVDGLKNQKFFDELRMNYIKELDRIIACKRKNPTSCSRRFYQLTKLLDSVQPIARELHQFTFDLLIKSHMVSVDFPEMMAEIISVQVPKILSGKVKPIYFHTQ
Text: Speaking of the substance of the invention which acts as antagonist against but not as agonist for the androgen receptor, the expression "not acting as agonist" means that in the following androgen receptor gene assay, the transcriptional activity value of the substance at any concentration of 0.1 nmol/L - 10 µmol/L is from one to five times the transcriptional activity value for no addition of the substance which is taken as unity:
Twenty-four hours before transfection, 1.0 x 10^5 HeLa cells (purchased from Dainippon Pharmaceutical Co., Ltd.) are cultured in phenol red free Dulbecco's modified Eagle medium (DMEM) containing 5% of charcoal-treated FBS (DCC-FBS) in 12-well microplates. Five hundred nanograms/well of MMTV-Luc vector (the reporter plasmid of luciferase having mouse tumor long terminal repeats containing the androgen response element: GM-CAT vector (A.T.C.C. No. 67282) purchased from A.T.C.C. provided that the chloramphenicol acetyl transferase gene was replaced by the firefly luciferase gene), 100 ng/well of pSG5-hAR (the expression vector of the human androgen receptor which harbors the androgen receptor gene under the control of SV40 promoter) and 5 ng/well of Renilla Luc vector (a vector for internal standard incorporating the sea pansy luciferase gene) are transfected into the HeLa cells. The transfection is performed in a liquid culture of the phenol red free DMEM using […] of lipofectoamine (GibcoBRL). Nine hours after the transfection, the liquid culture is replaced by phenol red free DMEM/3% DCC-FBS containing 10 µmol/L of a compound of the invention which is represented by the general formula (I) or the substance of the invention which acts as antagonist against but not as agonist for the androgen receptor. The transcriptional activity value is measured 48 hours after the replacement of the liquid culture. Transcriptional activity is measured with a dual-luciferase reporter assay system (Promega). The transcriptional activity value is defined as the value for firefly luciferase divided by the value for sea pansy luciferase. […] 270, pp. 19998-20003, 1995.
(§1) Twenty-four hours before transfection, 1.0 x 10^5 HeLa cells were cultured in phenol red free DMEM/5% DCC-FBS on 12-well microplates. Five hundred nanograms/well of MMTV-Luc vector, 100 ng/well of pSG5-hAR and 5 ng/well of Renilla Luc vector were transfected into the HeLa cells. The transfection was performed in a liquid culture of the phenol red free DMEM using […] of lipofectoamine. […] The transcriptional activity value was measured 48 hours after the replacement of the liquid culture. Transcriptional activity was measured with a dual-luciferase reporter assay system. The transcriptional activity value was calculated as the value for firefly luciferase divided by the value for sea pansy luciferase.
The compound was added at concentrations of 1, 10, 100, 1000 and 10000 nmol/L. Agonist activity = Transcriptional activity when the compound was added/Transcriptional activity when the compound was not added [formula]

human androgen receptor [2] = target: T1, human androgen receptor; experiment: Androgen receptor reporter gene assay, antagonist action against DHT (MMTV-Luc, pSG5/hAR and Renilla Luc vectors transfected into HeLa cells, dual-luciferase); format: cell-based
Description: The expression "acting as antagonist" means that in the following androgen receptor gene assay, the transcriptional activity value of 0.1 nmol/L of dihydrotestosterone (DHT) is inhibited to 0 - 50% at any concentration of 0.1 nmol/L - 10 µmol/L:
Twenty-four hours before transfection, 1.0 x 10^5 HeLa cells are cultured in phenol red free DMEM/5% DCC-FBS on 12-well microplates. Five hundred nanograms/well of MMTV-Luc vector, 100 ng/well of pSG5/hAR and 5 ng/well of Renilla Luc vector are transfected into the HeLa cells. The transfection is performed in a liquid culture of the phenol red free DMEM using […] of lipofectoamine. Nine hours after the transfection, the liquid culture is replaced by phenol red free DMEM/3% DCC-FBS containing 0.1 nmol/L of DHT and […] of a compound of the invention which is represented by the general formula (I) or the substance of the invention which acts as antagonist against but not as agonist for the androgen receptor. The transcriptional activity value is measured 48 hours after the replacement of the liquid culture. Transcriptional activity is measured with a dual-luciferase reporter assay system. The transcriptional activity value is defined as the value for firefly luciferase divided by the value for sea pansy luciferase. […] 270, pp. 19998-20003, 1995.
as §1, with “pSG5/hAR” for “pSG5-hAR”
The compound was added at concentrations of 1, 10, 100, 1000 and 10000 nmol/L and at each of these concentrations, measurement was done in the presence of DHT (0.1 nmol/L). Antagonist activity = Transcriptional activity when the compound was added/Transcriptional activity when the compound was not added x 100 [formula]

androgen receptor = androgen receptor (Homo sapiens, UniProt P10275); conditions: cited from earlier work
[3] = prostate cancer patients under flutamide treatment; cited from earlier work
castrated rats = conditions: two-week continuous administration; cited from earlier work

Compound	FI5 value (human androgen receptor [1])	pIC50 (human androgen receptor [2])	also measured
CNC(=O)CCCOc1cccc(CCC[C@@H]2C[C@H]3CC(=O)CC[C@]3(C)[C@H]3CC[C@]4(C)[C@@H](O)CC[C@H]4[C@H]23)c1 (stereo in doubt) [Example 164, 17β-hydroxy-7α-[3-[3-{3-(N-methylaminocarbonyl)propoxy}phenyl]propyl]-5α-androstan-3-one]	ND (even when the compound was added at a concentration of 10000 nM, the transcriptional activity of the compound-treated group was less than 5 times the transcriptional activity of the control group, making it impossible to compute the FI5 value)	6.54	
CC(C)NC(=O)CCCCCCCC1CC2CC(=O)CCC2(C)C2CCC3(C)C(O)CCC3C12 (stereo not shown) [Example 14]	ND (even when the compound was added at a concentration of 10000 nM, the transcriptional activity of the compound-treated group was less than 5 times the transcriptional activity of the control group, making it impossible to compute the FI5 value)	5.70	
CC12CCC3C(C(CCCCCCCC(=O)N4CCCC4)CC4CC(=O)CCC43C)C1CCC2O (stereo not shown) [Example 29]	ND (even when the compound was added at a concentration of 10000 nM, the transcriptional activity of the compound-treated group was less than 5 times the transcriptional activity of the control group, making it impossible to compute the FI5 value)	6.52	
CN(C)C(=O)CCCCCCCCCCC1CC2CC(=O)CCC2(C)C2CCC3(C)C(O)CCC3C12 (stereo not shown) [Example 52]	ND (even when the compound was added at a concentration of 10000 nM, the transcriptional activity of the compound-treated group was less than 5 times the transcriptional activity of the control group, making it impossible to compute the FI5 value)	6.56	
CC12CCC3C(C(CCCCCCCC(=O)NCCc4ccccc4)CC4CC(=O)CCC43C)C1CCC2O (stereo not shown) [Example 74]	ND (even when the compound was added at a concentration of 10000 nM, the transcriptional activity of the compound-treated group was less than 5 times the transcriptional activity of the control group, making it impossible to compute the FI5 value)	5.69	
CC(C)(O)C(=O)Nc1ccc([N+](=O)[O-])c(C(F)(F)F)c1 [Hydroxyflutamide, hydroxyflutamide]	1000 nM		acting as agonist (human androgen receptor [1]): act as agonist; agonist action for the androgen receptor mediated transcriptional activity (human androgen receptor [1]): exhibit agonist action; transcriptional activity value of DHT (human androgen receptor [2]; text of Example 2, with 0.1 nmol/L of DHT, HeLa cells, 48 hours): less than 50%; transcriptional activity of the androgen receptor (androgen receptor): elevated; Plasma levels [3]: several
CC(=O)O[C@]1(C(C)=O)CC[C@H]2[C@@H]3C=C(Cl)C4=CC(=O)CC[C@]4(C)[C@H]3CC[C@@]21C [chlormadinone acetate]			prostate weight (castrated rats): increased
CC(=O)O[C@]1(C(C)=O)CC[C@H]2[C@@H]3C=C(Cl)C4=CC(=O)[C@@H]5C[C@@H]5[C@]4(C)[C@H]3CC[C@@]21C [cyproterone acetate]			prostate weight (castrated rats): increased
bicaltamide	767 nM		transcriptional activity value relative to the case of non-addition (human androgen receptor [1]; Example 1, HeLa cells, 48 hours): more than five times; acting as agonist (human androgen receptor [1]): act as agonist; agonist action for the androgen receptor mediated transcriptional activity (human androgen receptor [1]): exhibit agonist action

Reference: patent publication EP1219631A1, “ANTIANDROGEN AGENTS” (CHUGAI SEIYAKU KABUSHIKI KAISHA, priority 1999, dated 2001)
